Assay [1] deals with GADD45 mRNA. The assay is described as follows: Northern blot analysis of mRNA levels. The format is cell-based, human. Particulars: SK-N-MC cells, 20 h; chelators 25 μM, DFO 100 μM. The protocol:
(§1) FIG. 6. The effect of the chelators on mRNA levels of GADD45, WAF1 and β-actin in SK-N-MC neuroepithelioma cells. Total RNA was extracted from cells after a 20 h incubation with medium alone (control) or medium containing ferric ammonium citrate (100 μg/mL), DFO (100 μM), or the other chelators (25 μM). The isolated RNA was then electrophoresed on a 1.2% agarose-formaldehyde gel, transferred to a hybridisation membrane, and probed under high stringency conditions.
(§2) Northern blot analysis was performed by isolating total RNA using the Total RNA isolation Reagent from Advanced Biotechnologies Ltd (Surrey, United Kingdom). The RNA (15 μg) was heat denatured at 90° C. for 2 mins in RNA-loading buffer and then loaded onto a 1.2% agarose-formaldehyde gel. After electrophoresis, RNA was transferred to a nylon membrane (GeneScreen, New England Nuclear, Boston, USA) in 10×SSC using the capillary blotting method. The RNA was then cross-linked to the membrane using a UV-crosslinker (UV Stratalinker 1800, Stragene Ltd., USA).
(§3) The membranes were hybridized with probes specific for human WAF1, GADD-45 and β-actin. The WAF1 probe consisted of a 1 kb fragment from pSXV(ATTC: Cat. No. 79928). The GADD45 probe consisted of a 760 bp fragment from human GADD45 cDNA cloned into pHu145B2 (kindly supplied by Dr. Albert Fornace, National Cancer Institute, NIH, Maryland). The β-actin probe consisted of a 1.4 kb fragment from human β-actin cDNA cloned into pBluescript SK-(ATTC: at. No 37997).
(§4) Hybridization of probes to the membranes and their subsequent washing were performed as described by Mahmoudi and Lin, 1989, Biotechniques 7, 331–2 using a Hybaid Shake and Stack Hybridization oven (Hybaid Ltd., Middlesex, UK). The membranes were then exposed to Kodak XAR Films at −70° C. with an intensifying screen. The probes were stripped from the nylon membrane by boiling in a solution containing 10 mM Tris-HCl (pH 7.0). 1 mM EDTA (pH 8.0) and 1% SDS for 15–30 mins as described by the membrane manufacturer. Densitometric data were collected with a Laser Densitometer and analyzed by Kodak Biomax Software (Kodak Ltd, USA).

Assay [2] has as its system WAF1 mRNA. The assay is described as follows: Northern blot analysis of mRNA levels. Format: cell-based, human. To be noted: SK-N-MC cells, 20 h; chelators 25 μM, DFO 100 μM. The protocol: as §1, §2, §3, §4
Assay [3] deals with 59Fe-loaded reticulocytes. The assay is described as follows: mobilisation of 59Fe from 59Fe-loaded reticulocytes (mitochondrial Fe overload model). The format is cell-based, rabbit. As for the experimental part: FIG. 7. The effect of reincubation time with the Fe chelators on ^59Fe mobilization from ^59Fe-loaded reticulocytes. The cells were labelled with ^59Fe-transferrin (3.75 μM) in the presence of the heme synthesis inhibitor, succinylacetone (1 mM), and incubated with the cells for 1 h at 37° C. The ^59Fe-labelled reticulocytes were then incubated with the chelators (200 μM) for 15–240 min at 37° C. The results are Mean±SD (3 determinations) in a typical experiment of three performed.
FIG. 9. The effect of chelator concentration on ^59Fe mobilization from ^59Fe-loaded reticulocytes. The cells were labelled with ^59Fe-transferrin (3.75 μM) in the presence of the heme synthesis inhibitor, succinylacetone (1 mM), and incubated with the cells for 1 h at 37° C. The ^59Fe-labelled reticulocytes were then incubated with the chelators (10–200 μM) for 15–240 min at 37° C. The results are Mean±SD (3 determinations) in a typical experiment of three performed.
Reticulocytosis was induced by standard procedures (Richardson, D. R., Ponka, P and Vyoral, D (1996) Blood 87, 3477–3488) in New Zealand white rabbits by repeated phlebotomy by cardiac puncture using a protocol approved by the McGill University Animal Care Committee. Reticulocytes were identified based on staining with new methylene blue, and cell counts were determined using an improved Neubauer counting chamber.
Reticulocytes were obtained from chronically bled rabbits as described above and were incubated with 1 mM succinylacetone (SA: Sigma) to inhibit heme synthesis. After a 15 min preincubation in the presence of SA, ^59Fe-Tf ([…]) was added and incubated with the cells for 1 H at 37° C. with shaking. After this incubation the reticulocytes were washed three times with ice-cold PBS to remove non-specifically bound ^59Fe-Tf. The washed ^59Fe-labelled reticulocytes (30–35 μL) were incubated in buffered salt solution (250 μL final volume) with the apochelators. The SA was present in all incubations with the chelators to prevent the utilization of non-heme ^59Fe for heme synthesis. After the incubation, ^59Fe was measured both in washed reticulocytes and in the medium, and the percentage of ^59Fe mobilized from the reticulocytes was then calculated.

The subject of assay [4] is SK-N-MC neuroepithelioma cells. The assay is described as follows: 59Fe release from prelabelled cells (iron efflux). The format is cell-based, human. To be noted: chelators 0.5–50 μM, 'most effective' refers to concentrations up to 10 μM.
Assay [5] has as its system SK-N-MC neuroepithelioma cells. Kind of assay: internalized 59Fe uptake from 59Fe-transferrin. Format: cell-based, human. To be noted: chelators 0.5–50 μM, 3 hr, 'most effective' refers to concentrations up to 10 μM.
For assay [6], the system named is neuroblastoma (NB). To be noted: cited from earlier work.

In the case of `O=C(NN=Cc1ccccn1)c1ccccc1` [PCBH, 2-pyridylcarboxaldehyde benzoyl hydrazone], in assay [1], the “level of GADD45 mRNA (FIG. 6)” value is reported as “did not have any effect”. In addition, in assay [2], the “level of WAF1 mRNA (FIG. 6)” value is reported as “did not have any effect”.

In the case of `O=C(NN=Cc1ccco1)c1ccncc1` [FIH, 2furoylcarboxaldehyde isonicotinoyl hydrazone], in assay [3] (chelator concentration 200 μM (range 10–200 μM), reincubated 1 h at 37° C., 3 determinations), the “cellular 59Fe released from 59Fe-loaded reticulocytes, 1 h reincubation (FIG. 9)” value is “very low activity”. Also, in assay [3] (chelators 200 μM, 240 min of incubation, FIG. 7), the “cellular 59Fe mobilized from 59Fe-loaded reticulocytes after 240 min” value stood at 4%.

Regarding `O=C(NN=Cc1ccccn1)c1cccs1` [PCTH, 2-pyridylcarboxaldehyde 2-thiophenecarboxyl hydrazone], the “level of GADD45 mRNA (FIG. 6)” value in assay [1] was “did not have any effect”. In addition, the “level of WAF1 mRNA (FIG. 6)” value in assay [2] is reported as “did not have any effect”. In assay [4], the “efficacy at mobilizing 59Fe as a function of chelator concentration (FIG. 3A)” value is “most effective chelators”. In addition, the “efficacy at preventing 59Fe uptake from 59Fe-Tf as a function of chelator concentration (FIG. 3B)” value in assay [5] is “most effective chelators”.

As to `CC(=O)N(O)CCCCCNC(=O)CCC(=O)N(O)CCCCCNC(=O)CCC(=O)N(O)CCCCCN` [DFO, desferrioxamine, reference compound], the “effect on mobilizing 59Fe from 59Fe-loaded reticulocytes at high concentrations” value in assay [3] (high concentrations up to 5 mM, activity similar to control medium) is on record as “little effect”. For the same molecule, the “decrease in bone infiltration of tumor cells” value in assay [6] (7 of 9 patients with neuroblastoma, 8 hr intravenous infusion) was over 50%. In addition, in assay [6] (in 1 patient with neuroblastoma), the “decrease in tumor size” value is listed as 48%.

As for `O=C(NN=Cc1c(O)ccc2ccccc12)c1ccncc1` [Chelator 311, 2-hydroxy-1-naphthylaldehyde isonicotinoyl hydrazone, reference compound], the “level of GADD45 mRNA (FIG. 6)” value in assay [1] is reported as “increase”. The “level of WAF1 mRNA (FIG. 6)” value in assay [2] is given as “increase”.

The values above are taken from patent US6989397B1, “Iron chelators and uses thereof” (University of Queensland, priority 1999, dated 2006).
